Assay results published in US9233127B2, “Compositions and methods for CXCR4 signaling and umbilical cord blood stem cell engraftment” (University of Virginia Patent Foundation, priority 2012, dated 2016).
Entries after “also recorded” stand apart in the source; their conditions may differ.

Columns and labels:
[1] = system: UCB progenitors (human CD45 cells); assay: Long-term human engraftment of C3a primed UCB in NOD/SCID mice; assay type: in vivo
Experimental: FIG. 5A-B—Long-Term Engraftment of C3a Primed Progenitors (comprising upper and lower panels).
FIG. 54A-B—NOD.SCID engraftment comparing C3a Primed UCB vs. Control. […] 54A—control; 54B—C3a
These laboratory experiments were performed to evaluate responsiveness of UCB to SDF-1 gradient correlated with an outcome of injections in NOD/SCID mice to evaluate engraftment in vivo. In vivo studies incorporated humanized NOD.SCID/IL2rγ^null (NOG) mice were conducted to assess proportions and kinetics of human HSC homing, engraftment, comparing C3a primed UCB CD34^+ HSC vs. controls. NOD.SCID/IL2rγ^null is used in our studies as these mice lack the cytoplasmic region of the IL-2Rγ and reproducibly develop human T, myeloid, NK, and B-lymphoid cells when transplanted with cord blood CD34^+ cells. This model therefore provides a platform to analyze in vivo competitive repopulation of the full lymphopoietic system. […] More mature progenitors are considered to have exhausted after 8 weeks in this NOD.SCID model and human cells present are presumed to be derived from transplanted primitive progenitor cells. HLA staining was used to determine UCB chimerism and relative contribution of C3a primed UCB CD34^+ HSC to marrow engraftment.

CXCR4 [2] = assay: FACS analysis of CXCR4 expression on BM or UCB CD34+ cells; assay type: cell-based, human; design: dose or concentration left out as unconfirmed; details: 0, 12, and 24 hrs
Excerpt: (§1) In another set of experiments, we attempted to elucidate the molecular mechanisms by which C3a enhances the responsiveness of hematopoietic cells to an SDF-1 gradient. […] However, we observed that actin polymerization of CD34^+ cells to a low dose of SDF-1 was enhanced in the presence of C3a.

UCB MNC = assay: In vitro migration assay UCB (CD34+ HSC enumerated by FACS); assay type: cell-based, human; details: C3a 1 ug/ml; 3 h chemotaxis assay
Experimental: FIG. 52—In Vitro Migration Assay UCB. UCB MNC are loaded in the top chamber and the number of CD34^+ HSC present after the 3 h chemotaxis assay in the lower chambers from trans-wells are enumerated by FACS.

[3] = system: UCB MNC and CD4+45RA+ T-cells; assay: Transmigration of UCB MNC and CD4+/45RA+ T-cells to SDF-1 without and with C3a priming; assay type: cell-based, human; details: C3a 1 μg/ml 30 minutes; SDF-1 10 ng/ml, 3 h
Experimental: FIG. 30A-B—UCB MNC migration to SDF-1. Lymphocytes from SSC/FSC plots were gated to determine the number of transmigrating UCB CD45^+CD4^+ T-cells. A. The total number of transmigrated lymphocytes migrating without and with C3a priming prior to exposure to 10 ng/ml SDF-1 (mean±SD). […] All staining patterns of labeled cells were compared to cells incubated with APC- and PerCP-isotype antibodies to set negative quadrants gates.
FIG. 31A-B—UCB CD4^+45RA T-cell migration to SDF-1. […] A. Percentage of selected CD4^+/45RA^+ T-cells transmigrating without and with C3a priming prior to exposure to 10 ng/ml SDF-1 (mean±SD). B. CD45^+CD4^+ T-cells were observed only in gate P3 in contrast to the transmigration of MNC.
Cord blood MNC (FIG. 30A-B) isolated by Ficoll density gradient centrifugation or naïve CD4^+/45RA^+ T-cells (FIG. 31A-B below), isolated from MNC fractions (Miltenyi), were incubated in DMEM media with 1% human serum albumin or exposed to complement protein C3a (1 μg/ml) for 30 minutes at RT. […] Transmigrated cells were counted (Z Series Coulter counter) and stained with anti-CD4-PerCP anti-CD45-APC antibodies for 20 min in PBS buffer with 10% FBS prior to flow cytometric analyses on a […] in […], cells were fixed in 2% paraformaldehyde prior to acquisition. […]

Sca-1+ cells = assay: Hematopoietic recovery of lethally irradiated mice given C3a primed Sca-1+ cells; assay type: in vivo
Excerpt: FIG. 6A-B—Sca-1^+ Cells Primed with C3a Engraft Faster in Lethally Irradiated Mice. 6A—left panel; 6B—right panel.

[4] = system: human umbilical vein endothelial cells; assay: Adhesion of UCB CD34+ cells to endothelial cells; assay type: cell-based
UCB and BM CD34+ cells = assay: MMP secretion and trans-Matrigel migration of primed CD34+ cells; assay type: cell-based, human; details: UCB and BM CD34+ cells primed with C3a
CXCR4 [5] = assay: Western blot of CXCR4 in lipid raft membrane fractions of THP-1 cells; assay type: cell-based, human
Experimental: FIG. 15A-B—Western blot analysis of the colocalization of CXCR4 in fractions of cell membranes enriched in lipid rafts (fractions 3-5) and depleted of lipid rafts (fractions 9-11). Panel A: Hematopoietic THP-1 cells were stimulated by C3a (1 μg/mL) or desArgC3a (1 μg/mL) or not stimulated (control). CXCR4 was detected in these membrane fractions by Western blot along with ganglioside GM1, a marker of lipid rafts. Experiments were performed three times with similar results. Panel B: In control experiments, cells were pretreated for 1 hr with 10 mM MβCD. A representative study is shown.
Furthermore, direct evidence of the effect of priming agents on CXCR4 incorporation into membrane lipid rafts was obtained from Western blot analysis of CXCR4 expression in various fractions of cell membranes isolated according to their lipid raft content (Example 2, FIG. 15A-B). […] The role of C3a in incorporation of CXCR4 into membrane lipid rafts in UCB cells and involvement of other signaling molecules to this phenomenon will be evaluated in Aim 1.

UCB CD34+ cells = assay: Actin polymerization in CD34+ cells; assay type: cell-based, human; details: in the presence of C3a
Excerpt: Exposure of UCB CD34^+ cells to a low dose of SDF-1 promotes actin polymerization which is enhanced by the presence of C3a.
as §1

[6] = C3a primed hematopoietic progenitors

In the case of “C3a: 77 amino acid residue protein derived from the human complement C3a precursor; SEQ ID NO:1”, the “human CD45 cells detected by FACS in marrow” value ([1]; NOD.SCID at 8 weeks after injection, vs control) is reported as “significantly higher”, the “long-term human engraftment, flow cytometry for human anti-CD45” value ([1]; NOD/SCID mice harvest after 12 weeks, vs unprimed cells) is reported as “exhibit long-term human engraftment” and the “CXCR4 expression after C3a exposure” value (CXCR4 [2]) is reported as “not enhanced; also recorded: negative results”. The “rates of UCB chemotaxis in vitro” value (UCB MNC) was “significantly higher rates”, the “migration of UCB MNC or naïve CD45+ CD4+ cells to a low SDF-1 gradient” value [3] was “prime migration of a portion of the cell populations” and the “faster rate of leukocyte recovery relative to untreated mice” value (Sca-1+ cells; [6]) was 5 days. For the same substance, the platelet counts (Sca-1+ cells; [6]) was “benefit in platelet counts”, the “infusional toxicity and coagulopathy” value (Sca-1+ cells; murine studies) was “neither infusional toxicity nor evidence of coagulopathy was observed” and the “adhesion of UCB CD34+ cells to human umbilical vein endothelial cells” value ([4]; C3a) was “increases adhesion”. For the same substance, the “adhesion of CD34+ cells” value ([4]; combination of C3a priming and SDF-1) was “only to a slight increase”, the “MMP-9 and MMP-2 secretion” value (UCB and BM CD34+ cells) was “significantly increase” and the “trans-Matrigel migration toward a low dose of SDF-1” value (UCB and BM CD34+ cells) was “significantly increase”. For the same substance, the “incorporation of Rac-1 into membrane lipid rafts” value (CXCR4 [5]) was “increased the incorporation of Rac-1”, the “incorporation of CXCR4 into GM1-enriched membrane lipid rafts (fractions 3-5)” value (CXCR4 [5]; 1 μg/mL) was “stimulates incorporation of CXCR4” and the “actin polymerization of CD34+ cells to a low dose of SDF-1” value (UCB CD34+ cells) was “enhanced”.
